Reference: publication PMC3162996 (Journal of natural products, 2011)
Entries after “also recorded” stand apart in the source; their conditions may differ.

Key:
[1] = tested on: transcription factor AP-1; experiment: AP-1 assay; assay type: cell-based; conditions: HEK293T AP-1 β-lactamase reporter; 1 h pre-incubation, then TPA, 18 h
[2] = Floridian collections of Lyngbya confervoides; ref [6],[7]; cited from earlier work

Row | Substance | inhibitory activity against AP-1 (in words) [1] | cytotoxicity (in words) [2]
1 | Grassypeptolide F [compound 1] | moderately active; also recorded: moderate inhibitory activity | 
2 | Grassypeptolide G [compound 2] | moderately active; also recorded: moderate inhibitory activity | 
3 | grassypeptolide C [compound 5] |  | cytotoxic
